In PubChem BioAssay AID1117356 (Cheminformatics & Chemogenomics Research Group (CCRG), …, 2015):
Activity calls are given as the source filed them. The rule behind the calls is not given here.

Target: Receptor-type tyrosine-protein kinase FLT3 (Homo sapiens) (UniProt P36888)
Assay: inhibitors of Homo sapiens fms-like tyrosine kinase 3, primary HTS, cell-free, LANCE Ultra TR-FRET, NPC library from NCATS (AID 1117356)
Conditions: recombinant FLT3, LANCE Ultra TR-FRET kinase assay, stronger effect = higher value

Sequence of Receptor-type tyrosine-protein kinase FLT3 (Homo sapiens) (P36888 whole entry, looked up): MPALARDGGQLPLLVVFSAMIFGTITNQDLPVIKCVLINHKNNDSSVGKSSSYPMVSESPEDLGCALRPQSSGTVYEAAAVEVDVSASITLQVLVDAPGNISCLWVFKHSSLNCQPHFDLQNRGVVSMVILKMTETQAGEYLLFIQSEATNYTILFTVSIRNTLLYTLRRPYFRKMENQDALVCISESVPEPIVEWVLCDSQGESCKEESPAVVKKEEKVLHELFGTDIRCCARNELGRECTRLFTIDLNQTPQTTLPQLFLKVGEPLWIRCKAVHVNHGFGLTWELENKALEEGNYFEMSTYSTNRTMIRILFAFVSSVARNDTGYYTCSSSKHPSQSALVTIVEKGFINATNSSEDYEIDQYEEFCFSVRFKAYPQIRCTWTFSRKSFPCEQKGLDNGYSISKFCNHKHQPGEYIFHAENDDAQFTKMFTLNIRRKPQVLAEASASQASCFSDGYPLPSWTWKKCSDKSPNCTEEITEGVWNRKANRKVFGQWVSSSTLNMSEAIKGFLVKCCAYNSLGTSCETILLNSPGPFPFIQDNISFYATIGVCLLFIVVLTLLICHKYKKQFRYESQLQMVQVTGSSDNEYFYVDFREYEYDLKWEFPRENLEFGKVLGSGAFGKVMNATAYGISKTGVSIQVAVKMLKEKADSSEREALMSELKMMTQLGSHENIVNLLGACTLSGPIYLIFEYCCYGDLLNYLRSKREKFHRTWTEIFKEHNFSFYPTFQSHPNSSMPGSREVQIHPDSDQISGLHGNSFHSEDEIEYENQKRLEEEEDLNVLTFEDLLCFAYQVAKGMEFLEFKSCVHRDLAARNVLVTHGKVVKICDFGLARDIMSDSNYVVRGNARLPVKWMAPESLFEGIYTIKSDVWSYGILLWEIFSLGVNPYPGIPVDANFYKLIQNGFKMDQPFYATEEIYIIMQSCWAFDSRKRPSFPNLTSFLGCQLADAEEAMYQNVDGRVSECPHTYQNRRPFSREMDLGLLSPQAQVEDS

| SMILES | inhibition (at 20 µM) | inhibition (inhibition, at 0.2 µM) | inhibition (inhibition, at 2 µM) |
| --- | --- | --- | --- |
| CCCCCCNC(=O)n1cc(F)c(=O)[nH]c1=O | -1.76% (inactive) | -6.64% | -7.12% |
| COC(=O)c1nc(Cl)c(Cl)nc1N | 60.2% | 16.3% | 51% |
| S=c1nc[nH]c2nc[nH]c12 | -15% (inactive) | -36.3% | -4.89% |
| CCCCCCCCCCCCCCCCCCNC(=O)OC1CCN(C(=O)OC[C@H](COC(=O)N(Cc2cccc[n+]2CC)C(=O)c2ccccc2OC)OC)CC1 |  | -4.54% | -22.2% |
| CC(C)C[C@H](NC(=O)[C@H](CCc1ccccc1)NC(=O)CN1CCOCC1)C(=O)N[C@@H](Cc1ccccc1)C(=O)N[C@@H](CC(C)C)C(=O)[C@@]1(C)CO1 | 8.47% (inactive) | -8.96% | 15% |
| Cc1ccc([N+](=O)[O-])[c]2c1[O][Hg]2 | 61.9% | -27.4% | 26.6% |
| CC[C@]1(O)C[C@@H]2CN(CCc3c([nH]c4ccccc34)[C@@](C(=O)OC)(c3cc4c(cc3OC)N(C)[C@H]3[C@@](O)(C(=O)OC)[C@H](OC(C)=O)[C@]5(CC)C=CCN6CC[C@]43[C@@H]65)C2)C1 | -5.73% (inactive) | -16.1% | 13.8% |
| COC(=O)Nc1nc2ccc(C(=O)c3ccccc3)cc2[nH]1 | 11.7% (inactive) | -25.2% | 8.15% |
| O=c1c(-c2ccccc2)c1-c1ccccc1 | 41.7% (inactive) | -22% | 10.9% |
| COc1ccc2cc1Oc1ccc(cc1)C[C@H]1c3c(cc4c(c3Oc3cc5c(cc3OC)CCN(C)[C@@H]5C2)OCO4)CCN1C | -6.46% (inactive) | -16% | -0.97% |
| C[n+]1c2cc(N)ccc2cc2ccc(N)cc21 (tested in a mixture with another compound) |  | -37.7% | -20.8% |
| O=C(O)c1ccc(-n2nc(-c3ccccc3O)nc2-c2ccccc2O)cc1 | 31.5% (inactive) | -9.59% | 7.62% |
| COc1cc(NCc2ccc3nc(N)nc(N)c3c2C)cc(OC)c1OC | -229% (inactive) | -7.18% | 0.42% |
| CCN(CC)CCOc1ccc(/C(=C(\Cl)c2ccccc2)c2ccccc2)cc1 | -2.64% (inactive) | -10.4% | -9.83% |
| Cc1nc(N)nc(N)c1-c1ccc(Cl)c(Cl)c1 | 14.5% (inactive) | -7.85% | 8.61% |
| COc1ccc(-c2nc3ccc(C4=NNC(=O)CC4C)cc3[nH]2)cc1 (stereo unspecified) | 72.3% | -3.88% | 35.3% |
| COC(=O)Nc1nc2ccc(Sc3ccccc3)cc2[nH]1 | -9.66% (inactive) | -10.8% | 5.38% |
| CCCSc1ccc2nc(NC(=O)OC)[nH]c2c1 | 10.2% (inactive) | -15.1% | 22.7% |
| COCc1c(C(C)C)nc(C(C)C)c(/C=C/[C@@H](O)C[C@@H](O)CC(=O)O)c1-c1ccc(F)cc1 | 8.38% (inactive) | -11.4% | 11.1% |
| CN1CC[C@H](c2c(O)cc(O)c3c(=O)cc(-c4ccccc4Cl)oc23)[C@H](O)C1 | 61.7% | -9.71% | 28.8% |
| CC(C)(C)C1CCC(CC2=C(O)c3ccccc3C(=O)C2=O)CC1 (stereo unspecified) | 37.2% (inactive) | -5.99% | 21.2% |
| CC(=O)[C@]1(O)Cc2c(O)c3c(c(O)c2[C@@H](O[C@H]2C[C@H](N)[C@H](O)[C@H](C)O2)C1)C(=O)c1ccccc1C3=O |  | -8.58% | -59.1% |
| Oc1c(Cl)cc(Cl)c2cccnc12 | -9.04% (inactive) | -28.1% | -0.96% |
